Test results from ChEMBL document CHEMBL1142360 (J Med Chem, 2008).

Assays:
PC-3 [1] = assay: Antiproliferative activity against human PC3 cells at 10 uM after 5 days; type: functional
[2] = Partition coefficient, log P of the compound; type: physicochemical; conditions: octanol/water
PC-3 [3] = assay: Antiproliferative activity against human PC3 cells; type: functional, cell-based

Row | SMILES | Activity (PC-3 [1]) | logP [2] | IC50 (PC-3 [3])
1 | CC1(C)NC(=O)N(c2ccc([N+](=O)[O-])c(C(F)(F)F)c2)C1=O [NILUTAMIDE] | 11% | 3.2 | 
2 | COc1ccc(C2(c3ccc(C#N)c(C(F)(F)F)c3)NC(=O)N(c3ccc(C#N)c(C(F)(F)F)c3)C2=O)cc1 (configuration not stated) | 76% | 5.7 | 5.6 µM
3 | C[C@](O)(CS(=O)(=O)c1ccc(F)cc1)C(=O)Nc1ccc(C#N)c(C(F)(F)F)c1 [(R)-BICALUTAMIDE] | 15% | 3.4 | 
